In US8163737B2 (Vertex Pharmaceuticals Incorporated, priority 2006, dated 2012):

Assays:
[1] = target: endogenous CGRP receptor (Homo sapiens, UniProt O60894+Q16602); assay: CGRP functional antagonism using SK-N-MC-BLA (4C10), β-lactamase transcriptional reporter assay; type: cell-based; settings: SK-N-MC (4C10) cells, inhibition of β-lactamase expression in the presence of 200 pM CGRP
[2] = target: T1, CGRP receptor (SK-N-MC membrane) (Homo sapiens, UniProt O60894+Q16602); assay: I125-CGRP binding displacement assay on purified SK-N-MC membrane
T1 construct: Purified SK-N-MC membrane was purchased from Perkin Elmer; purchased Perkin Elmer; host or cells: SK-N-MC membrane
T1 sequence (Q16602 23-461): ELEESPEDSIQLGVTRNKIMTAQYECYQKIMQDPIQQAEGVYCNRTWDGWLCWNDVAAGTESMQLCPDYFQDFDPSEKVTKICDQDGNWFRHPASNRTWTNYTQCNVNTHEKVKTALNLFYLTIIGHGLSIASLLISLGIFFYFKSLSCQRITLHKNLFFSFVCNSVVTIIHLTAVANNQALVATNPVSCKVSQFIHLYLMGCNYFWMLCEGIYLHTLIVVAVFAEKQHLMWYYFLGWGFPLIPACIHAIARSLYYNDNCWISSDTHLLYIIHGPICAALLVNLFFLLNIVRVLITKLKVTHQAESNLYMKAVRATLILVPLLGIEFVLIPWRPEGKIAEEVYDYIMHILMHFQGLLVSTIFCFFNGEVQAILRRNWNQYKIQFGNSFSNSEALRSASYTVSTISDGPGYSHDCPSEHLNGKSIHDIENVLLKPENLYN
T1 sequence (O60894 27-148): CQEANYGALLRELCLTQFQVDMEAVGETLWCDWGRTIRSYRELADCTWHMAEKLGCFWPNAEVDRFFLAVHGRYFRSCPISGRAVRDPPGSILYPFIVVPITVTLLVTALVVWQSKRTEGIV
How it was run: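 Human SK-N-MC membranes incubated with compounds and I125-CGRP for 2 h at room temperature in 25 mM Tris-HCl pH 7.4, 5 mM MgCl2, 0.1% BSA, 0.05% Tween, then filtered and counted. Nonspecific binding defined with 1 uM unlabelled CGRP; percent displacement fitted to curves.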

Chain of endogenous CGRP receptor (Q16602 23-461): as the sequence (Q16602 23-461) above
Chain of endogenous CGRP receptor (O60894 27-148): as the sequence (O60894 27-148) above

Row | Compound | IC50 [1] | Ki [2]
1 | CC(C)CCN1C(=O)C(CC(=O)N2CCC(N3Cc4ccccc4NC3=O)CC2)SC1c1cccc(OC(F)(F)F)c1 (stereo not shown) [Compound 169] | 1000 to 5000 nM | < 1000 nM
2 | CC(C)CCN1C(=O)[C@H](CC(=O)N2CCC(N3Cc4ccccc4NC3=O)CC2)SC1c1ccccn1 (stereo partly shown) [Compound 148] | 1000 to 5000 nM | < 1000 nM
3 | CC(C)CCN1C(=O)C(CC(=O)N2CCC(N3Cc4ccccc4NC3=O)CC2)SC1c1ccc(C#N)cc1 (stereo not shown) [Compound 63] | < 1000 nM | < 1000 nM
4 | O=C(CC1SC(c2ccccc2)N(c2ccc3[nH]ncc3c2)C1=O)N1CCC(N2Cc3ccccc3NC2=O)CC1 (stereo not shown) [Compound 287] | 1000 to 5000 nM | 1000 to 5000 nM
5 | CC(C)CCN1C(=O)C(CC(=O)N2CCC(N3Cc4ccccc4NC3=O)CC2)SC1c1cccc(Cl)c1 (stereo not shown) [Compound 33] | < 1000 nM | < 1000 nM
6 | COc1ccc(C(=O)C2CCN(C(=O)C[C@@H]3SC(c4cccc(F)c4N4CCN(C(C)(C)C)CC4)N(CCC(C)(C)C)C3=O)CC2)cc1 (stereo partly shown) [Compound 461] | < 1000 nM | < 1000 nM
7 | CC(C)(C)CCN1C(=O)C(CC(=O)N2CCC(n3c(=O)[nH]c4ncccc43)CC2)SC1c1ccccc1N1CCC(O)CC1 (stereo not shown) [Compound 415] | 1000 to 5000 nM | < 1000 nM
8 | CC(C)(C)CCN1C(=O)[C@H](CC(=O)N2CCC(n3c(=O)[nH]c4ncccc43)CC2)SC1c1cccc(F)c1N1CCC(c2ccncc2)CC1 (stereo partly shown) [Compound 556] | < 1000 nM | < 1000 nM
9 | CC(C)(C)CCN1C(=O)C(CC(=O)N2CCC(N3Cc4ccccc4NC3=O)CC2)SC12CCc1ccccc12 (stereo not shown) [Compound 317] | 1000 to 5000 nM | < 1000 nM

Results, then the molecule that gave them:

Row | IC50 [1] | Ki [2] | Compound
10 | < 1000 nM | < 1000 nM | COc1ccccc1C1SC(CC(=O)N2CCC(N3Cc4ccccc4NC3=O)CC2)C(=O)N1CCC(C)C (stereo not shown) [Compound 80]
11 | < 1000 nM | < 1000 nM | CC(C)OCCN1C(=O)[C@H](CC(=O)N2CCC(N3CCc4ccccc4NC3=O)CC2)SC1c1cccc(F)c1N1CCN(C(C)(C)C)CC1 (stereo partly shown) [Compound 526]
12 | < 1000 nM | < 1000 nM | CC(C)(C)CCN1C(=O)C(CC(=O)N2CCC(N3CCc4ccccc4NC3=O)CC2)SC1c1ccccc1N1CCOCC1 (stereo not shown) [Compound 70]
13 | < 1000 nM | < 1000 nM | CN(C)c1ccccc1C1SC(CC(=O)N2CCC(N3CCc4ccccc4NC3=O)CC2)C(=O)N1CCC(C)(C)C (stereo not shown) [Compound 263]
14 | < 1000 nM | < 1000 nM | CC(C)(C)CCN1C(=O)[C@H](CC(=O)N2CCC(N3CCc4ccccc4NC3=O)CC2)SC1c1cccc(F)c1NCCN1CCCCC1 (stereo partly drawn) [Compound 520, 3-(1-(2-((5S)-2-(2-(2-(Piperidin-1-yl)ethylamino)-3-fluorophenyl)-3-(3,3-dimethylbutyl)-4-oxothiazolidin-5-yl)acetyl)piperidin-4-yl)-4,5-dihydro-1H-benzo[d][1,3]diazepin-2(3H)-one]
15 | < 1000 nM | < 1000 nM | CC(C)(C)N1CCN(c2c(F)cccc2[C@@H]2S[C@@H](CC(=O)N3CCC(N4CCc5ccccc5NC4=O)CC3)C(=O)N2CCc2ccccc2)CC1 [Compound 508]
16 | < 1000 nM | < 1000 nM | CCN1CCN(c2c(F)cccc2C2SC(CC(=O)N3CCC(n4c(=O)[nH]c5ncccc54)CC3)C(=O)N2CCC(C)(C)C)CC1 (stereo not shown) [Compound 349]
17 | < 1000 nM | < 1000 nM | CC(C)(C)CCN1C(=O)[C@H](CC(=O)N2CCC(N3CCc4ccccc4NC3=O)CC2)SC1c1ccccc1N1CCNCC1=O (stereo partly shown) [Compound 511]
18 | < 1000 nM | < 1000 nM | CC(C)CN1C(=O)[C@H](CC(=O)N2CCC(N3CCc4ccccc4NC3=O)CC2)SC1c1cccc(F)c1N1CCN(C(C)(C)C)CC1 (stereo partly shown) [Compound 494]
19 | > 5000 nM | > 5000 nM | CC(C)N1CCN(c2c(F)cccc2C2SC(CC(=O)N3CCC(N4CCc5ccccc5NC4=O)CC3)C(=O)N2CCC(C)(C)C)CC1 (stereo not shown) [Compound 340]
20 | < 1000 nM | < 1000 nM | CC(C)CCN1C(=O)C(CC(=O)N2CCC(N3Cc4ccccc4NC3=O)CC2)SC1c1c(F)cccc1C(F)(F)F (stereo not shown) [Compound 256]
